Data set [1] has as its system M. tuberculosis H37Rv. The conditions noted are these: cited from earlier work.
For data set [2] the following is noted: mouse model; no reference given; cited from earlier work.
The target of data set [3] is T1, mtFabH (Mycobacterium tuberculosis, UniProt P9WNG3). Briefly: mtFabH inhibition assay. The format is biochemical.
Data set [4] concerns M. tuberculosis H37Rv. Briefly: M. tuberculosis H37Rv inhibition assays (MIC). Particulars: for MIC: M. tuberculosis H37Rv. It counts as cell-based, Mycobacterium tuberculosis.
For the next data set, the system named is FAS-II. Kind of data set: FAS-II assay. The format is biochemical. As for the experimental part: (§1) The molecules under investigation were designed to inhibit mtFabH in the mycobacterial FAS-II system, with selectivity over the related mammalian FAS-I system. To examine selectivity, the compounds were assessed using the procedures of Brown et al. and Slayden et al..
(§2) FAS-I and FAS-II experiments were conducted as per Slayden et al. (1996) using the 40–80% ammonium sulphate fraction. The standard reaction mixture for the incorporation of radioactivity from [2-^14C]malonyl-CoA into C16 to C24 fatty acids catalysed by FAS-I was composed as follows: 100 mM Tris.HCl pH 7.9, 5 mM EDTA, 5 mM dithiothreitol, 300 µM acetyl-CoA, 100 µM NADPH, 100 µM NADH, 1 µM flavin mononucleotide, 500 µM α-cyclodextrin, 300 µM CoA-SH, 100,000 cpm of [2-^14C] malonyl-CoA (specific activity 53 Ci/mol), test compound (0.5–200 µg/ml) and 2 mg of cytosolic enzyme preparation in a total volume of 500 µl. Similarly, the standard reaction mixture for incorporation of radioactivity from [2-^14C]malonyl-CoA into C24 to C30 fatty acids catalysed by FAS-II contained the following: 100 mM potassium phosphate buffer (pH 7.0), 5 mM EDTA, 5 mM dithiothreitol, 10 µM palmitoyl-CoA, 140 µM NADPH, 140 µM NADH, 100 µg of AcpM, 40 µM malonyl-CoA, 200,000 cpm of [2-^14C]malonyl-CoA (specific activity 53 Ci/mol), test compound (0.5–200 µg/ml) and 200 mg of cytosolic enzyme preparation in a total volume of 250 µl. In both the FAS-I and FAS-II assays, reactions were performed in triplicate at 37°C for 30 min and terminated by the addition of 250 µl of 20% potassium hydroxide in 50% methanol at 100°C for 45 min. Following acidification with 150 µl of 6 M HCl, the resultant ^14C-labelled fatty acids were extracted three times with petroleum ether. The organic extracts were pooled, washed once with an equal volume of water, and dried in a scintillation vial prior to counting.

For data set [5], the target named is T1, mtFabH. The conditions noted are these: cited from earlier work.
The next data set relates to FAS-I. Briefly: FAS-I assay. The format is biochemical. As for the experimental part:
as §1
as §2, with “In both the FAS-I and FAS-II assays, reactions were performed in triplicate at 37°C for 30 min and terminated by the addition of 250 µl of 20% potassium hydroxide in 50% methanol at 100°C for 45 min. Following acidification with 150 µl of 6 M HCl, the resultant ^14C-labelled fatty acids were extracted three times with petroleum ether. The organic extracts were pooled, washed once with an equal volume of water, and dried in a scintillation vial prior to counting.” left out

For data set [6] the following is noted: no reference given; cited from earlier work.
Setting [7] is: N/A = no inhibition observed at 200 µg/ml, read-out: mtFabH IC50 (class N/A).
Setting [8] is: Mycobacterium tuberculosis, read-out: TB MIC.
Setting [9] is: read-out: mtFabH IC50 (converted).
Setting [10] is: Mycobacterium tuberculosis, N/A = no inhibition observed at 200 µg/ml, read-out: TB MIC (class N/A).

“And” between values parts separate entries of the source, which are not always exact repeats. Identical values can stand only once. “Also recorded” adds a separate entry of the source. Like-named read-outs stand apart in the source and are kept apart here. A value given as a limit tells only on which side of the number the result lay.

T1 sequence (P9WNG3 2-335): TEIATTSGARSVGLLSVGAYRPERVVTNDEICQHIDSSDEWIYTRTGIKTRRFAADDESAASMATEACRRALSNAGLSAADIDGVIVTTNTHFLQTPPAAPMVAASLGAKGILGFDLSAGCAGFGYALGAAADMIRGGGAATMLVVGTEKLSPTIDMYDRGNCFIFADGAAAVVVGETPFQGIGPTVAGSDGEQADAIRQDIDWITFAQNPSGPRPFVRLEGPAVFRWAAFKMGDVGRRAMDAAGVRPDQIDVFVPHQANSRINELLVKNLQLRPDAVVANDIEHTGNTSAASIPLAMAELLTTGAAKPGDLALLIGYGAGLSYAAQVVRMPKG

In the case of `C=C/C(C)=C/[C@@]1(C)SC(=O)C(C)=C1O` [1 (TLM), thiolactomycin], in the data set on M. tuberculosis H37Rv [1] (listed as TLM), the MIC was 13 µg/ml and 62.5 µM. Besides, in data set [2], the oral availability result is “orally available” and the toxicity result was “non-toxic”.
Consider `COC(=O)c1nc(N)sc1Cc1ccccc1` [Compound 2, methyl 2-amino-5-benzylthiazole-4-carboxylate], for which the “inhibition of mtFabH (in words)” value on mtFabH [3] is “no activity”. For the same compound, at mtFabH [3] (setting [7]), the IC50 is above 805 µM. For the same compound, the MIC was 0.24 µM in the data set with M. tuberculosis H37Rv [4] (read-out: TB MIC); 0.06 µg/mL and 0.24 µM in the data set with M. tuberculosis H37Rv [4] (setting [8]).
As for `COC(=O)c1nc(NC(=O)CBr)sc1-c1cccc(Cl)c1` [Compound 3, methyl 2-(2-bromoacetamido)-5-(3-chlorophenyl)thiazole-4-carboxylate], the “inhibition of FAS-II (in words)” value in the data set with FAS-II is given as “selective against FAS-II”. In addition, the “inhibition of mtFabH (in words)” value at mtFabH [3] is “active against mtFabH”. On mtFabH [3] (setting [9]), the IC50 is 2.44 µM and 2.43 µM. The “inhibition of M. tuberculosis H37Rv (in words)” value in the data set with M. tuberculosis H37Rv [4] was “not active”. The MIC in the data set with M. tuberculosis H37Rv [4] (setting [10]) was above 200 µg/mL.
`CC1=C(O)C(C)(Cc2ccc(-c3ccc(C(=O)O)cc3)cc2)SC1=O` (centres unmarked) [Compound 4]: the IC50 at mtFabH [5] is 3.1 µM and 3 µM.
In general, melting point refers to the temperature of the solid-liquid transition. Consider `COC(=O)c1nc(N)sc1C` [Compound 6, Methyl 2-amino-5-methylthiazole-4-carboxylate], for which the melting point fell in the range of 165 to 168 °C. For the same compound, the IC50 at mtFabH [3] (setting [7]) was above 1160 µM. For the same compound, the MIC in the data set on M. tuberculosis H37Rv [4] (setting [8]) was 16 µg/mL and 93 µM.
For the compound `COC(=O)c1nc(N)sc1-c1ccccc1` [Compound 7, Methyl 2-amino-5-phenylthiazole-4-carboxylate], the melting point lay within 218 to 221 °C. Moreover, at mtFabH [3] (setting [7]), the IC50 is above 854 µM. Further, in the data set on M. tuberculosis H37Rv [4], the “inhibition of M. tuberculosis H37Rv (in words)” value was “inactivity”. Also, the MIC with M. tuberculosis H37Rv [4] (setting [10]) was above 200 µg/mL.
With `COC(=O)c1nc(N)sc1-c1cccc(Cl)c1` [Compound 8, Methyl 2-amino-5-(3-chlorophenyl)thiazole-4-carboxylate], the melting point lay within 229 to 232 °C. In addition, the IC50 on mtFabH [3] (setting [7]) is above 744 µM. In the data set with M. tuberculosis H37Rv [4], the “inhibition of M. tuberculosis H37Rv (in words)” value was “inactive”. Besides, the MIC in the data set on M. tuberculosis H37Rv [4] (setting [10]) is above 200 µg/mL.
`Cc1sc(N)nc1C(=O)O` [Compound 9, 2-amino-5-methylthiazole-4-carboxylic acid]: at mtFabH [3] (setting [7]), the IC50 was above 1260 µM. In the data set with M. tuberculosis H37Rv [4] (setting [8]), the MIC was 0.06 µg/mL and 0.35 µM.
For the compound `Nc1nc(C(=O)O)c(-c2ccccc2)s1` [Compound 10, 2-amino-5-phenylthiazole-4-carboxylic acid], the melting point is 242 to 243 °C. Further, the IC50 on mtFabH [3] (setting [7]) was above 908 µM. Further, the “inhibition of M. tuberculosis H37Rv (in words)” value in the data set on M. tuberculosis H37Rv [4] is “inactive”. The MIC in the data set on M. tuberculosis H37Rv [4] (setting [10]) is above 200 µg/mL.
Regarding `Nc1nc(C(=O)O)c(-c2cccc(Cl)c2)s1` [Compound 11, 2-amino-5-(3-chlorophenyl)thiazole-4-carboxylic acid], the melting point was in the range of 242 to 244 °C. Further, the IC50 at mtFabH [3] (setting [7]) is above 785 µM. For the same compound, the “inhibition of M. tuberculosis H37Rv (in words)” value in the data set on M. tuberculosis H37Rv [4] is “active”. In the data set with M. tuberculosis H37Rv [4] (setting [8]), the MIC was 32 µg/mL and 125 µM.
With `Nc1nc(C(=O)O)c(Cc2ccccc2)s1` [Compound 12, 2-amino-5-benzylthiazole-4-carboxylic acid], the melting point lay within 300 to 302 °C. For the same compound, the IC50 at mtFabH [3] (setting [7]) is above 854 µM. Further, in the data set on M. tuberculosis H37Rv [4], the “inhibition of M. tuberculosis H37Rv (in words)” value is “inactive”. The MIC with M. tuberculosis H37Rv [4] (setting [10]) was above 200 µg/mL.
As to `COC(=O)c1nc(NC(=O)CBr)sc1C` [Compound 13, Methyl 2-(2-bromoacetamido)-5-methylthiazole-4-carboxylate], the melting point was in the range of 220 to 222 °C. Moreover, the “inhibition of mtFabH (in words)” value against mtFabH [3] was “fails to inhibit”. Also, the IC50 on mtFabH [3] (setting [7]) is above 682 µM. For the same compound, the MIC in the data set with M. tuberculosis H37Rv [4] (setting [10]) is above 200 µg/mL.
On to `COC(=O)c1nc(NC(=O)CBr)sc1-c1ccccc1` [Compound 14, Methyl 2-(2-bromoacetamido)-5-phenylthiazole-4-carboxylate], for which the melting point fell in the range of 218 to 220 °C. The “inhibition of FAS-II (in words)” value with FAS-II was “selective against FAS-II”. Moreover, at mtFabH [3], the “inhibition of mtFabH (in words)” value was “active against mtFabH”. Also, on mtFabH [3] (setting [9]), the IC50 was 3.1 µM and 3.22 µM. Also, the MIC in the data set with M. tuberculosis H37Rv [4] (setting [10]) is above 200 µg/mL.
Take `COC(=O)c1nc(NC(=O)CBr)sc1Cc1ccccc1` [Compound 15, Methyl 5-benzyl-2-(2-bromoacetamido)thiazole-4-carboxylate]: the melting point was in the range of 218 to 220 °C. Further, the “inhibition of FAS-II (in words)” value in the data set on FAS-II was “failed to inhibit the FAS enzymes”. Further, on mtFabH [3] (setting [9]), the IC50 is 160 µM. In addition, the MIC in the data set with M. tuberculosis H37Rv [4] (setting [10]) was above 200 µg/mL. The “inhibition of FAS-I (in words)” value in the data set on FAS-I is given as “failed to inhibit the FAS enzymes”.
`Cc1sc(NC(=O)CBr)nc1C(=O)O` [Compound 16, 2-(2-Bromoacetamido)-5-methylthiazole-4-carboxylic acid] registered a melting point of 218 to 220 °C. At mtFabH [3], the “inhibition of mtFabH (in words)” value was “failed to inhibit”. Moreover, on mtFabH [3] (setting [7]), the IC50 is above 717 µM. Also, in the data set with M. tuberculosis H37Rv [4] (setting [10]), the MIC is above 200 µg/mL.
In turn, `O=C(CBr)Nc1nc(C(=O)O)c(-c2ccccc2)s1` [Compound 17, 2-(2-Bromoacetamido)-5-phenylthiazole-4-carboxylic acid] yielded a melting point of 208 to 210 °C. Also, the “inhibition of mtFabH (in words)” value against mtFabH [3] is reported as “failed to inhibit”. Further, the IC50 at mtFabH [3] (setting [7]) was above 586 µM. For the same compound, in the data set on M. tuberculosis H37Rv [4] (setting [10]), the MIC is above 200 µg/mL.
Consider `O=C(CBr)Nc1nc(C(=O)O)c(-c2cccc(Cl)c2)s1` [Compound 18, 2-(2-Bromoacetamido)-5-(3-chlorophenyl)thiazole-4-carboxylic acid], for which the melting point lay within 228 to 230 °C. The “inhibition of mtFabH (in words)” value at mtFabH [3] is “failed to inhibit; also recorded: inactive”. For the same compound, at mtFabH [3] (setting [7]), the IC50 is above 532 µM. Further, the MIC in the data set with M. tuberculosis H37Rv [4] (setting [10]) is above 200 µg/mL.
For `O=C(CBr)Nc1nc(C(=O)O)c(Cc2ccccc2)s1` [Compound 19, 5-Benzyl-2-(2-bromoacetamido)thiazole-4-carboxylic acid], the melting point was 220 to 222 °C. Also, the “inhibition of FAS-II (in words)” value in the data set on FAS-II was “inhibited both FAS-I and FAS-II”. Also, the IC50 at mtFabH [3] (setting [9]) is 633 µM and 718 µM. Besides, the MIC in the data set with M. tuberculosis H37Rv [4] (setting [10]) is above 200 µg/mL. In addition, the “inhibition of FAS-I (in words)” value in the data set with FAS-I is “inhibited both FAS-I and FAS-II”.
The term logP denotes a log measure of how a compound divides between an organic and an aqueous phase. With `NNC(=O)c1ccncc1` [INH, isoniazid], the MIC in the data set on M. tuberculosis H37Rv [1] was 0.25 µg/ml and 1.8 µM. Moreover, the logP in [6] is given as −1.1.

The values are drawn from article PMC2680598 (PLoS ONE, 2009).
